Test [1] has as its target T1, GHS1A-receptor (Homo sapiens, UniProt Q92847).
T1 construct: expressed in transfected cells; host or cells: HEK293
The test can be described thus: Ghrelin-agonism in HEK293 cells (intracellular calcium, FLIPR). The format is cell-based. Conditions: calcium fluorescence (fluo-4 or Kit-3), EC50 in M. The method, then:
One day before the experiment, HEK293 cells, permanently transfected with the gene sequence for expression of the GHS1A-receptor, were seeded in poly-D-Lysine coated 96-well plates with clear bottom, and allowed to grow to […] of confluence on the next day.
Then, cells were incubated with the calcium-sensitive intracellular fluorescent probe fluo-4 or Kit-3 for 1 h at 37° C. Fluorescence representing free intracellular calcium in the cells was measured in a FLIPR-system (excitation at 488 nm, emission>520 nm). Test compounds were added to each well at the desired concentration and the fluorescence signal was simultaneously recorded in all wells. Release of intracellular calcium triggered by activation of the receptors upon addition of the test compound was measured as the fluorescence emitted from the complex of calcium and the fluorescent probe. The drug effect on fluorescence intensity was expressed relative to the maximal fluorescence intensity measured in cells exposed to the calcium-ionophore ionomycin.
On the technique in general: A change in cytosolic calcium serves as a functional read-out for many receptors and channels.

The subject of test [2] is NMRI-mice. Description: Acceleration of gastric emptying and small intestinal propulsion in NMRI-mice. The note with it: Mus musculus, sc. It counts as in vivo. Here is the method: Male NMRI-mice weighing around 25 gram were fasted for 20 h and had free access to drinking water. Test compounds were administered to the animals by subcutaneous route 30 min before they were given a test meal by oral gavage. The test meal consisted of 0.3 ml of a chocolate nutridrink solution (1.0 kcal/ml) containing phenol red marker (5 mg/ml). Fifteen min after administration of the meal, the mice were sacrificed by CO2 gas inhalation. The phenol red content remaining in the stomach (extracted from the stomach with NaOH) was determined at 557 nm in a spectrophotometer and expressed as extinction units. Small intestinal propulsion was determined as the distance traveled by the phenol red marker through the intestine and expressed as a percentage of total small intestinal length (from the pylorus to the ileo-cecal junction).
The lowest dose that was active for each parameter was noted as the lowest active dose (LAD). Table 12 discloses LAD values.

Where [3] appears, read: HEK293 cells permanently transfected with GHS1A-receptor, read-out: pEC50 (converted).
Setting [4] is: lowest active dose, subcutaneous, 30 min before phenol red test meal, active when >60% of animals had phenol red front beyond 85% of small intestinal length, read-out: LAD (mg/kg) Small intestinal propulsion.
The mark [5] stands for this setting: lowest active dose, subcutaneous, 30 min before phenol red test meal, stomach content 15 min after meal, active when >60% of animals below 0.9 extinction units, read-out: LAD (mg/kg) Gastric emptying.

Structures can show the parent of a compound that is named as a salt. Where two headings read alike, the source gives them in different places. A value given as a limit tells only on which side of the number the result lay.

T1 sequence (Q92847 whole entry): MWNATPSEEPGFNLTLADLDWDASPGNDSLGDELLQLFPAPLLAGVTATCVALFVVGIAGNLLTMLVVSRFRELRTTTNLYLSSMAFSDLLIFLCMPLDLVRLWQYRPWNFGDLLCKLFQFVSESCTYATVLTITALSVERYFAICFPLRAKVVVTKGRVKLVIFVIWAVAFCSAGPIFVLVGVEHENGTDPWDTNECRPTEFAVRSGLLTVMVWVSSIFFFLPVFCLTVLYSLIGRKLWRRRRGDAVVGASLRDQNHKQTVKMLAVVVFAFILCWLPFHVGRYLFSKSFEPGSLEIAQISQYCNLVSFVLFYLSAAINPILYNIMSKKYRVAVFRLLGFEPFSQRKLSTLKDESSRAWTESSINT

With `CN(C)CCC[C@@]1(O)c2ccccc2CCC[C@@H]1c1ccc(Cl)cc1` (racemic) [Compound 1], the EC50 in test [1] (setting [3]) is 39.8 nM. For the same compound, the minimal effective dose in test [2] (setting [4]) and in test [2] (setting [5]) was 2.5 mg/kg throughout.

With `COc1cccc([C@H]2CCCc3ccccc3[C@]2(O)CCCN(C)C)c1` (racemic) [Compound 14, (±)cis-5-(3-Dimethylamino-propyl)-6-(3-methoxy-phenyl)-6,7,8,9-tetrahydro-5H-benzocyclohepten-5-ol oxalate], the EC50 in test [1] (pEC50, HEK293 cells permanently transfected with GHS1A-receptor) was 12.6 nM. Moreover, the minimal effective dose in test [2] (read-out: LAD (mg/kg) Gastric emptying) was 10 mg/kg; in test [2] (read-out: LAD (mg/kg) Small intestinal propulsion) it was above 10 mg/kg.

Regarding `Cc1ccc([C@H]2CCCc3ccccc3[C@]2(O)CCCN(C)C)cn1` (racemic) [Compound 16, (±)cis-5-(3-Dimethylamino-propyl)-6-(6-methyl-pyridin-3-yl)-6,7,8,9-tetrahydro-5H-benzocyclohepten-5-ol hydrochloride], in test [1] (setting [3]), the EC50 is 251 nM. Further, the results for the minimal effective dose in test [2] (setting [4]) and in test [2] (setting [5]) were above 10 mg/kg and 10 mg/kg, respectively.

On to `CNCCCC1(O)c2ccccc2CCCC1c1ccccc1` (racemic) [Compound 19], for which the EC50 in test [1] (setting [3]) is 200 nM. The minimal effective dose in test [2] (setting [4]) and in test [2] (setting [5]) was above 10 mg/kg throughout.

With `OC1(CCCN2CCCC2)c2ccccc2CCCC1c1ccccc1` (racemic) [Compound 21], the EC50 in test [1] (setting [3]) was 79.4 nM. Also, the minimal effective dose in test [2] (setting [4]) and in test [2] (setting [5]) was above 10 mg/kg throughout.

For `CNCCCC1(O)c2ccccc2CCCC1c1cccc(C)c1` (racemic) [Compound 22], in test [1] (setting [3]), the EC50 is 39.8 nM. In addition, the minimal effective dose in test [2] (setting [4]) and in test [2] (setting [5]) was above 10 mg/kg each time.

For `CNCCCC1(O)c2ccccc2CCCC1c1ccc(C)cc1` (racemic) [Compound 27], the EC50 in test [1] (setting [3]) was 79.4 nM. Besides, the minimal effective dose in test [2] (setting [4]) and in test [2] (setting [5]) was above 10 mg/kg each time.

`Cc1ccc(C2CCCc3ccccc3C2(O)CCCN(C)C)cc1` (racemic) [Compound 29]: the EC50 in test [1] (setting [3]) is 15.8 nM. Further, the minimal effective dose in test [2] (setting [4]) and in test [2] (setting [5]) was 10 mg/kg in each case.

As to `COCCN(C)CCCC1(O)c2ccccc2CCCC1c1ccc(C)cc1` (racemic) [Compound 30], the EC50 in test [1] (setting [3]) was 79.4 nM. Further, the minimal effective dose is above 10 mg/kg in test [2] (setting [4]) and 10 mg/kg in test [2] (setting [5]).

As to `CN(C)CCCC1(O)c2ccccc2CCCC1c1ccc(O)cc1` (racemic) [Compound 35], the EC50 in test [1] (setting [3]) is 2000 nM. The minimal effective dose in test [2] (setting [4]) and in test [2] (setting [5]) was above 10 mg/kg throughout.

On to `CN(C)CCCC1(O)c2ccccc2CCCC1c1ccc(Br)cc1` (racemic) [Compound 38], for which, in test [1] (setting [3]), the EC50 is 25.1 nM. In addition, the minimal effective dose in test [2] (setting [4]) and in test [2] (setting [5]) was above 10 mg/kg each time.

For the compound `CNCCCC1(O)c2ccccc2CCCC1c1cccc(Cl)c1` (racemic) [Compound 39], the EC50 in test [1] (setting [3]) was 50.1 nM. The minimal effective dose in test [2] (setting [4]) and in test [2] (setting [5]) was above 10 mg/kg each time.

As to `CCN(CC)CCCC1(O)c2ccccc2CCCC1c1cccc(Cl)c1` (racemic) [Compound 41], in test [1] (setting [3]), the EC50 was 7.94 nM. The minimal effective dose in test [2] (setting [4]) and in test [2] (setting [5]) was above 10 mg/kg in each case.

For `COCCN(C)CCCC1(O)c2ccccc2CCCC1c1cccc(Cl)c1` (racemic) [Compound 42], in test [1] (setting [3]), the EC50 is 50.1 nM. Besides, the minimal effective dose in test [2] (setting [4]) and in test [2] (setting [5]) was above 10 mg/kg throughout.

Take `CNCCCC1(O)c2ccccc2CCCC1c1ccc(Cl)cc1` (racemic) [Compound 43]: the EC50 in test [1] (setting [3]) is 126 nM. The minimal effective dose in test [2] (setting [4]) and in test [2] (setting [5]) was above 10 mg/kg throughout.

Regarding `CCN(CC)CCCC1(O)c2ccccc2CCCC1c1ccc(Cl)cc1` (racemic) [Compound 46], the EC50 in test [1] (setting [3]) is 200 nM. For the same compound, the minimal effective dose in test [2] (setting [4]) and in test [2] (setting [5]) was 10 mg/kg each time.

For the compound `OC1(CCCN2CCCC2)c2ccccc2CCCC1c1ccc(Cl)cc1` (racemic) [Compound 48], the EC50 in test [1] (setting [3]) is 31.6 nM. The minimal effective dose in test [2] (setting [4]) and in test [2] (setting [5]) was above 10 mg/kg throughout.

As to `CN(C)CCCC1(O)c2ccccc2CCCC1c1ccc(F)cc1` (racemic) [Compound 52], in test [1] (setting [3]), the EC50 was 12.6 nM. For the same compound, the minimal effective dose in test [2] (setting [4]) and in test [2] (setting [5]) was above 10 mg/kg each time.

For `CCN(CC)CCCC1(O)c2ccccc2CCCC1c1ccc(F)cc1` (racemic) [Compound 53], the EC50 in test [1] (setting [3]) was 20 nM. For the same compound, the minimal effective dose in test [2] (setting [4]) and in test [2] (setting [5]) was above 10 mg/kg each time.

With `COCCN(C)CCCC1(O)c2ccccc2CCCC1c1ccc(F)cc1` (racemic) [Compound 54], the EC50 in test [1] (setting [3]) is 63.1 nM. Also, the minimal effective dose in test [2] (setting [4]) and in test [2] (setting [5]) was above 40 mg/kg throughout.

As for `CN(C)CCCC1(O)c2ccccc2CCCC1c1ccc(F)cc1F` (racemic) [Compound 56], the EC50 in test [1] (setting [3]) was 25.1 nM. The minimal effective dose in test [2] (setting [4]) was above 10 mg/kg; in test [2] (setting [5]), 10 mg/kg.

`CCN(CC)CCCC1(O)c2ccccc2CCCC1c1ccc(F)cc1F` (racemic) [Compound 57]: the EC50 in test [1] (setting [3]) was 31.6 nM. For the same compound, the minimal effective dose in test [2] (setting [4]) and in test [2] (setting [5]) was 10 mg/kg throughout.

For `COCCN(C)CCCC1(O)c2ccccc2CCCC1c1ccc(F)cc1F` (racemic) [Compound 58], the EC50 in test [1] (setting [3]) was 126 nM. For the same compound, the minimal effective dose in test [2] (setting [4]) and in test [2] (setting [5]) was above 10 mg/kg in each case.

Consider `CNCCCC1(O)c2ccccc2CCCC1c1ccc(OC)c(OC)c1` (racemic) [Compound 76], for which the EC50 in test [1] (setting [3]) is 1580 nM.

For the compound `COc1ccc(C2CCCc3ccccc3C2(O)CCCN(C)C)cc1OC` (racemic) [Compound 77], in test [1] (setting [3]), the EC50 is 794 nM.

Regarding `COCCN(C)CCCC1(O)c2ccccc2CCCC1c1ccc(OC)c(OC)c1` (racemic) [Compound 79], the EC50 in test [1] (setting [3]) is 2000 nM.

On to `CN(CCCC1(O)c2ccccc2CCCC1c1cnc2ccccc2c1)Cc1ccccc1` (racemic) [Compound 87], for which the EC50 in test [1] (setting [3]) was 1580 nM.

Regarding `COCCN(C)CCCC1(O)c2ccccc2CCCC1c1ccc2c(c1)OCO2` (racemic) [Compound 90], the EC50 in test [1] (setting [3]) is 158 nM.

Consider `OC1CCN(CCCC2(O)c3ccccc3CCCC2c2ccc3c(c2)OCO3)C1` (racemic) [Compound 91], for which the EC50 in test [1] (setting [3]) is 1000 nM.

In the case of `COc1cncc(C2CCOc3ccccc3C2(O)CCCN(C)C)c1` (racemic) [Compound 100], the EC50 in test [1] (setting [3]) is 3980 nM.

For `CCN(CC)CCCC1(O)c2ccccc2OCCC1c1cncc(OC)c1` (racemic) [Compound 101], the EC50 in test [1] (setting [3]) was 2000 nM.

As for `CCN(CC)CCCC1(O)c2ccccc2OCCC1c1ccc(OC)nc1` (racemic) [Compound 103], the EC50 in test [1] (setting [3]) was 6310 nM.

For the compound `CN(C)CCC[C@@]1(O)c2ccccc2OCC[C@@H]1c1ccccc1` (relative stereo) [Compound 8], the EC50 in test [1] (setting [3]) was 316 nM.

With `CN(C)CCCC1(O)c2ccccc2CCCC1c1ccc(Cl)cc1` (single isomer, unassigned) [Compound 5], the EC50 in test [1] (setting [3]) was 1000 nM.

`CN(C)CCCC1(O)c2ccccc2CCCC1c1ccc(Cl)cc1` (single isomer, unassigned) [Compound 6]: the EC50 in test [1] (setting [3]) is 10 nM.

With `CN(C)CCCC1(O)c2ccccc2CCCC1c1ccccc1` (single isomer, unassigned) [Compound 104], the EC50 in test [1] (setting [3]) was 2000 nM.

(Values after patent US9040725B2, “Benzocycloheptane and benzoxepine derivatives” (Janssen Pharmaceutica NV, priority 2008, dated 2015).)
